Article PMC9090415, “Discovery of small molecule inhibitors of Plasmodium falciparum apicoplast DNA polymerase” (Journal of Enzyme Inhibition and Medicinal Chemistry, 2022)

Molecular target: T1, bacteriophage T4 DNA polymerase (Enterobacteria phage T4, UniProt P04415)
T1 construct: made in house
T1 sequence (P04415 1-898): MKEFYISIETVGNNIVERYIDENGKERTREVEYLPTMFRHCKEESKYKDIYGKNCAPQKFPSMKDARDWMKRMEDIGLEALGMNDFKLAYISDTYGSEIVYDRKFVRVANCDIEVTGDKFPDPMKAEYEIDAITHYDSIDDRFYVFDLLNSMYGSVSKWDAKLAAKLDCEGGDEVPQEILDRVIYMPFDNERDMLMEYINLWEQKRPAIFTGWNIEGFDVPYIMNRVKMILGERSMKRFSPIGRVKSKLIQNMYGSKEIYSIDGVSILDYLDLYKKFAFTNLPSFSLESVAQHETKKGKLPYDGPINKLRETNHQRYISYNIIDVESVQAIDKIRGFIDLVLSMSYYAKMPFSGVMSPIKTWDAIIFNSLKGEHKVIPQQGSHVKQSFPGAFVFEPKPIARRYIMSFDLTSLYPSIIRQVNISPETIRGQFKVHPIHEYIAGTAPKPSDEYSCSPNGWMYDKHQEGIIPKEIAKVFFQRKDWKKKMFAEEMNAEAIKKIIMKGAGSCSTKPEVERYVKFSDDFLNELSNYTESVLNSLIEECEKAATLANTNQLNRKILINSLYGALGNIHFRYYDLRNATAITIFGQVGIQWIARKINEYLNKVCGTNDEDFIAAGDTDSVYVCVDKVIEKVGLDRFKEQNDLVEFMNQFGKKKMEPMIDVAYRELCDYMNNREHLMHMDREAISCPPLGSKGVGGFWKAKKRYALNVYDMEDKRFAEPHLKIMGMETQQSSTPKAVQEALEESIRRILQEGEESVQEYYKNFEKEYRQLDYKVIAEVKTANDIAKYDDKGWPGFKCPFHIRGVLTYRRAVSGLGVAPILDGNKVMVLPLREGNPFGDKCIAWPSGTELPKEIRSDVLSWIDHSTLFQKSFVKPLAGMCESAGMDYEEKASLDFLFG
Assay: Counter-screen against bacteriophage T4 DNA polymerase
Format: biochemical
Conditions: for % inhibition T4 10' 2.5 / % inhibition T4 10' 5 / % inhibition T4 10' 10 / % inhibition T4 10' 20 / % inhibition T4 10' 40 / % inhibition T4 10' 80: read at 10'
Protocol: Codon-optimized, exonuclease-deficient Pf-apPOL was overexpressed in E. coli BL21 (DE3) and purified as described. The protein was dialysed against two, 1-liter changes of 20 mM Tris-HCl (pH 8.0), 400 mM NaCl, and 20% glycerol. Plasmodium bergei and Babesia bovis apPOLs (Pb-apPOL and Bb-apPOL, respectively) were codon-optimized, expressed, and purified as for Pf-apPOL[15]. Bacteriophage T4 DNA polymerase was purified as described. The DNA oligonucleotides used to make the high-throughput substrate were obtained from Integrated DNA Technologies. Deoxynucleotides were purchased from Strategene. All other materials came from Fisher Scientific.
Each compound was tested in a dose-response format to determine IC50 values. […] T4 DNA polymerase can be produced in large quantities, and is in the same family (B-family) as the replicative human DNA polymerases (α, δ, and ε)[20].

Cc1ccsc1Cn1c(C)ccc1C [Molecule 70, Cc1ccsc1Cn1c(C)ccc1C]
% inhibition T4 10' 2.5 (DRC-1, concentration 2.5): -4.493% | % inhibition T4 10' 5 (DRC-1, concentration 5): -2.675% | % inhibition T4 10' 10 (DRC-1, concentration 10): 9.004% | % inhibition T4 10' 20 (DRC-1, concentration 20): 13.0915% | % inhibition T4 10' 40 (DRC-1, concentration 40): 20.7391% | % inhibition T4 10' 80 (DRC-1, concentration 80): -6.46% | % inhibition T4 70' 2.5 (DRC-1, read at 70', concentration 2.5): -3.335% | % inhibition T4 70' 5 (DRC-1, read at 70', concentration 5): -3.037% | % inhibition T4 70' 10 (DRC-1, read at 70', concentration 10): 6.944% | % inhibition T4 70' 20 (DRC-1, read at 70', concentration 20): 8.488% | % inhibition T4 70' 40 (DRC-1, read at 70', concentration 40): 14.2763% | % inhibition T4 70' 80 (DRC-1, read at 70', concentration 80): -12.9684% | % inhibition T4 130' 2.5 (DRC-1, read at 130', concentration 2.5): -4.899% | % inhibition T4 130' 5 (DRC-1, read at 130', concentration 5): -4.557% | % inhibition T4 130' 10 (DRC-1, read at 130', concentration 10): 3.714% | % inhibition T4 130' 20 (DRC-1, read at 130', concentration 20): 4.205% | % inhibition T4 130' 40 (DRC-1, read at 130', concentration 40): 10.2962% | % inhibition T4 130' 80 (DRC-1, read at 130', concentration 80): -25.7177% | % inhibition T4 10' 2.5 (DRC-2, concentration 2.5): -7% | % inhibition T4 10' 5 (DRC-2, concentration 5): -1.66% | % inhibition T4 10' 10 (DRC-2, concentration 10): 10% | % inhibition T4 10' 20 (DRC-2, concentration 20): 11% | % inhibition T4 10' 40 (DRC-2, concentration 40): 14% | % inhibition T4 10' 80 (DRC-2, concentration 80): 7.37% | % inhibition T4 40' 2.5 (DRC-2, read at 40', concentration 2.5): -7% | % inhibition T4 40' 5 (DRC-2, read at 40', concentration 5): -2% | % inhibition T4 40' 10 (DRC-2, read at 40', concentration 10): 10% | % inhibition T4 40' 20 (DRC-2, read at 40', concentration 20): 11% | % inhibition T4 40' 40 (DRC-2, read at 40', concentration 40): 14% | % inhibition T4 40' 80 (DRC-2, read at 40', concentration 80): 7% | % inhibition T4 90' 2.5 (DRC-2, read at 90', concentration 2.5): -5% | % inhibition T4 90' 5 (DRC-2, read at 90', concentration 5): -2.51% | % inhibition T4 90' 10 (DRC-2, read at 90', concentration 10): 8% | % inhibition T4 90' 20 (DRC-2, read at 90', concentration 20): 9% | % inhibition T4 90' 40 (DRC-2, read at 90', concentration 40): 12% | % inhibition T4 90' 80 (DRC-2, read at 90', concentration 80): 5% | % inhibition T4 180' 2.5 (DRC-2, read at 180', concentration 2.5): -7% | % inhibition T4 180' 5 (DRC-2, read at 180', concentration 5): -9% | % inhibition T4 180' 10 (DRC-2, read at 180', concentration 10): 1.9% | % inhibition T4 180' 20 (DRC-2, read at 180', concentration 20): 4% | % inhibition T4 180' 40 (DRC-2, read at 180', concentration 40): 8% | % inhibition T4 180' 80 (DRC-2, read at 180', concentration 80): 1.21%
